Experimental data taken from patent publication US8895502B2, “β2-glycoprotein I peptide inhibitors” (Kansas State University Research Foundation, priority 2010, dated 2014).
“Also recorded” adds a separate entry of the source. Ends that are not written are not given here.

Columns and labels:
B16-F10 mouse melanoma = test: B16-F10 melanoma model, tumor growth and vascularization; format: in vivo
Description: The mouse melanoma cell line, B16-F10 (ATCC CRL-6475), was cultured in DMEM supplemented with 10% fetal bovine serum at 8% CO2 until confluent. C57Bl/6 mice were injected subcutaneously with 2×10^6 cells mixed 1:1 in matrigel (BD Biosciences) and tumor growth was evaluated daily for up to 10 days using calipers. Some mice received 40 μM peptide daily for the first 4 days and then every other day until termination of the study. Control mice received N. saline. At the end of the study, the tumors were dissected and tumor volume determined by saline displacement. Photomicrographs (10×) of representative B16-F10 tumors extracted from C57Bl/6 wildtype mice were taken with a Nikon CoolSnap CF camera and an Olympus SZ61 microscope.
The study was repeated using additional C57Bl/6 mice, which were injected subcutaneously with 2×10^6 cells mixed with matrigel (above) 6-10 days before tumor excision. Peptide treated mice received 40 μM peptide 296Cys-Ser on days 1, 2, 3, 4, 6, and 8 after injection (n=2-5 animals/group) or days 3, 5, 7, 9 or only on days 4, 6, and 8. At the end of the study, the tumors were excised, measured, and volume was determined by aqueous displacement. Tumors were cut in half longitudinally with one half homogenized in Trizol for RNA and the other placed in OCT for histological analysis. Both halves were snap frozen and stored at −80° C. until used.

CD31 = test: B16-F10 melanoma model, CD31 expression in tumors; format: in vivo, mouse
Description: (§1) mRNA was isolated from the tumor samples that were homogenized in Trizol. The concentration of mRNA was evaluated by nanodrop and the purity by bioanalyzer. cDNA was then synthesized using random primers with the Quanta cDNA synthesis kit. Real-time PCR was then performed on a 1:100 dilution of cDNA for 18s rRNA. After 3 min denaturing at 95° C., the real-time PCR reaction consisted of 50 cycles (of 10 sec at 95° C., 20 sec at 58° C., and 10 sec at 72° C.), followed by a melt curve increasing at intervals of 0.5° from 60° C. to 95° C. RT-PCR was also performed on cDNA samples for CD31 and endoglin which are endothelial markers of angiogenesis. Fold change of each gene was determined by subtracting 18s for normalization of RNA and fold change was determined by comparing to original cells which were set to 1. Primers were obtained from Integrated DNA Technology (Coraville, Iowa) and sequences are in the table below.
OCT cryopreserved tumor sections were cut and stained similar to intestinal sections in Example 1. CD31 and Pan-endothelial expression was detected by FITC conjugated rat anti-mouse CD31 or pan-endothelial antibodies (Biolegend, San Diego, Calif.). Each experiment contained serial sections stained with the appropriate isotype control antibodies. All slides were mounted with ProLong Gold (Invitrogen) and images were obtained and analyzed as described in Example 1.

endoglin = test: B16-F10 melanoma model, endoglin expression in tumors; format: in vivo, mouse; conditions: peptide treatment on days 1-4, 6, and 8, qRT-PCR
Description: as §1

[1] = test system: Fvb/N-Tg(MMTV-PyVT)634Mul/J mice mammary tumors; test: Spontaneous breast cancer model, tumor growth; format: in vivo, mouse; conditions: 40 μM retro-orbital 3 times per week for 7 weeks after palpable tumor
Description: Ten […] Fvb/N-Tg(MMTV-PyVT)634Mul/J mice were generously donated by T. A. Nguyen and maintained under 12 h light/dark cycles at Kansas State University, Division of Biology (Manhattan, Kans.). These mice are Her2^+ Estrogen receptor α/β^+, Progesterone receptor^+, p53^+ animal models that spontaneously develop breast cancer. All mice were allowed access to food and water ad libitum and maintained under specific pathogen free conditions. Research was conducted in compliance with the Animal Welfare Act and other federal statutes and regulations relating to animals and experiments involving animals and was approved by the Institutional Animal Care and Use Committee.
Mice were observed 3 times a week until tumors were palpable. Randomly, mice were assigned to receive treatment with N. Saline or peptide 296c-s. Each peptide treated mouse received β2-Glycoprotein 1 Peptide 296c-s (40 μM) by retro-orbital injection three times a week for 7 additional weeks. N. Saline treated mice received the same volume (80 μL) of 0.15M normal saline retro-orbitally three times a week as a control group.
Tumors were measured by hand with calipers three times a week for 7 weeks after the start of injection. After 7 weeks, the mice were briefly anesthetized using isofluorene followed by cervical dislocation euthanization and the tumors were harvested. The tumors were measured volumetrically. […]

VEGF = test: Spontaneous breast cancer model, VEGF RNA expression; format: in vivo, mouse; conditions: mammary tumors, compared to saline treated animals
Description: as §1, with “RT-PCR” for “Real-time PCR”, “0.5° C.” for “0.5°”, “VEGF” for “endoglin”, “After” for “Fold change of each gene was determined by”, “Ct values, peptide treated dCt values were normalized to saline treated samples” for “for normalization of RNA”, “calculated as ddCt.” for “was determined by comparing to original cells which were set to 1.”

LTB4 = test: Intestinal IR, ex vivo LTB4 generation; format: in vivo, mouse; conditions: 40 μM peptide at 5 min prior to ischemia and 15-, 30- or 60-min post-ischemia
[2] = test system: thioglycollate-elicited macrophages, IL-6; test: β2-GPI stimulated macrophage IL-6 production; format: cell-based; conditions: mouse β2-GPI 10 μg/mL, peptide 40 μM, 18 hours
Description: C57Bl/6 mice were injected i.p. with 1 mL thioglycollate (4%) 4 days prior to peritoneal lavage. Peritoneal exudate macrophages or the B cell line, LK35.2, were seeded at 2×10^6 cells/mL in 24-well or 96-well plates. After macrophage adherence, both cell types were treated with mouse β2-GPI (10 μg/mL) with or without peptide (40 μM). Additional cells were unstimulated as a negative control or stimulated with 10 μg/mL LPS (E. coli 055B5) as a positive control. Supernatants were collected 18-20 hours after stimulation and analyzed for nitrite by Griess reagent (Hoffman & Fleming, Cell Biochem. Funct. 28:686-694 (2010)) or IL-6 by Milliplex MAP kit (Millipore) following the manufacturer's instructions using a Luminex 200 with xPONENT 3.1 and Analyst software (Millipore).

Substance | tumor vascularization (appearance) (B16-F10 mouse melanoma; 2 mice injected with melanoma cells and peptide) | tumor volume, normal saline displaced (B16-F10 mouse melanoma; 2 mice injected with melanoma cells and peptide, day 8) [mL] | animals in which the tumor was either not present or had significantly diminished from the day of injection (B16-F10 mouse melanoma; early treatment (days 1-4, 6, 8)) | angiogenesis in the B16F10 melanoma model (B16-F10 mouse melanoma; mouse, in vivo) | tumor growth and volume (B16-F10 mouse melanoma; repeat study, compared to untreated mice) | tumor growth (B16-F10 mouse melanoma; treatment on days 1-4, 6, and 8) | tumor growth (B16-F10 mouse melanoma; treatment on days 3, 5, 7, and 9) | protein expression of both endothelial markers (CD31; immunohistochemistry of tumors) | CD31 RNA expression within the tumors (CD31; peptide treatment on days 1-4, 6, and 8, qRT-PCR) | endoglin RNA expression within the tumors (endoglin) | percent tumor growth compared to initial measurements [1] | RNA expression of VEGF (VEGF) | IR-induced LTB4, time course of administration (LTB4) | β2-GPI induced IL-6 production [2]
H-IHFYSKNKEKKSSYTVEAHSRDGTI-OH [peptide 296Cys-Ser] | neither tumor appear vascularized | 0 to 0.1 | 3 of 7 | attenuates angiogenesis | significantly decreased | attenuated tumor growth; also recorded: prevented growth | attenuated tumor growth | decreased | attenuated | attenuated | significantly decreased | significantly decreased | significantly inhibited | –
H-KKCSYTVEAHCRDGTIEIPSCFKEHS-OH (cysteine pairing not given here) [peptide 305, 10] | – | – | – | – | – | – | – | – | – | – | – | – | – | attenuated
